Strand notation (5' to 3'): a small letter for the sugar, then the base; units joined by * are phosphorothioate-linked, units joined directly phosphodiester-linked; [ ] holds rarer units or linkages, { } end groups; capitals alone tell only the bases. e = 2'-O-(2-methoxyethyl) (MOE); [5mC] = 5-methylcytosine; d = 2'-deoxy (DNA)
These substances were tested on human Factor 7 mRNA (assay: Antisense inhibition of human Factor 7 mRNA in HepB3 cells, 50 nM antisense oligonucleotide, lipofectin). Conditions: Table 1, 50 nM, lipofectin, approximately 24 hours, relative to untreated control cells.
Format: cell-based
Method in brief: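 Seeding density was 4,000 cells per well. Following roughly 24 hours of oligonucleotide treatment, RNA was extracted and Factor 7 message quantified using the RTS 2927 primer probe set. Levels were corrected for RIBOGREEN® total RNA and expressed against untreated controls.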

First: 407900 (antisense e[5mC]*e[5mC]*e[5mC]*e[5mC]*eA*d[5mC]*dA*dA*dT*dT*d[5mC]*dG*dG*d[5mC]*d[5mC]*eT*eT*eG*eG*eG) [compound 407900]
Second: 407910 (antisense eA*eG*eT*e[5mC]*e[5mC]*dT*dT*dG*d[5mC]*dT*dG*d[5mC]*d[5mC]*dA*dT*e[5mC]*e[5mC]*eG*eA*eG) [compound 407910]
The “% Inhibition” value of the first is higher: 91% for the first, 86% for the second.

For “407936 (antisense eG*eG*e[5mC]*eA*eT*dT*d[5mC]*dG*d[5mC]*d[5mC]*dA*d[5mC]*d[5mC]*dA*dT*eG*e[5mC]*eA*eT*eG) [compound 407936]”, the “% Inhibition” value was 91%.

Same assay, conditions: gapmers targeted to nucleobases 4868 to 4899 of SEQ ID NO: 1, Table 8

First: 422293 (antisense eA*eG*dT*dT*d[5mC]*dT*dG*d[5mC]*dA*dG*dG*dA*dG*d[5mC]*dG*eG*e[5mC]*e[5mC]*eT*eA) [compound 422293]
Second: 422297 (antisense e[5mC]*e[5mC]*d[5mC]*dG*dA*dG*dT*dT*d[5mC]*dT*dG*d[5mC]*dA*dG*dG*eA*eG*e[5mC]*eG*eG) [compound 422297]
The “% Inhibition of human Factor 7 mRNA levels” value of the first is higher: 69% for the first, 63% for the second.

Same assay, conditions: lipofectin, 50 nM antisense oligonucleotide, approximately 24 hours, Factor 7 mRNA by real-time RT-PCR (RTS 2927), relative to untreated control

First: 407900 (antisense e[5mC]*e[5mC]*e[5mC]*e[5mC]*eA*d[5mC]*dA*dA*dT*dT*d[5mC]*dG*dG*d[5mC]*d[5mC]*eT*eT*eG*eG*eG) [compound 407900]
Second: 407910 (antisense eA*eG*eT*e[5mC]*e[5mC]*dT*dT*dG*d[5mC]*dT*dG*d[5mC]*d[5mC]*dA*dT*e[5mC]*e[5mC]*eG*eA*eG) [compound 407910]
The “% Inhibition” value of the first is higher: 78% for the first, 72% for the second.

Each substance was assayed on human Factor 7 mRNA (assay: Dose-dependent antisense inhibition of human Factor 7 in HepB3 cells, lipofectin). Conditions: Table 3, 3.125 nM, approximately 16 hours.
Format: cell-based
Procedure: Cells were plated at a density of 4,000 cells per well and treated with lipofectin reagent with 3.125 nM, 6.25 nM, 12.5 nM, 25 nM, 50 nM, and 100 nM concentrations of antisense oligonucleotide, as indicated in Table 3. After a treatment period of approximately 16 hours, RNA was isolated from the cells and Factor 7 mRNA levels were measured by real-time RT-PCR, as described herein. Human Factor 7 primer probe set RTS 2927 (forward sequence: […], incorporated herein as SEQ ID NO: 164; reverse sequence: […], incorporated herein as SEQ ID NO: 165; probe sequence: TGGGTGGTCTCCGCGGCCX, incorporated herein as SEQ ID NO: 166) was used to measure mRNA levels. Factor 7 mRNA levels were adjusted according to total RNA content as measured by RIBOGREEN®. Results are presented as percent inhibition of Factor 7, relative to untreated control cells.
Cells were plated at a density of 4,000 cells per well and transfected using lipofectin reagent with 6.25 nM, 12.5 nM, 25.0 nM, 50.0 nM, and 100.0 nM concentrations of antisense oligonucleotide, as indicated in Table 7. After a treatment period of approximately 16 hours, RNA was isolated from the cells and Factor 7 mRNA levels were measured by real-time RT-PCR, as described herein. Human Factor 7 primer probe set RTS 2927 was used to measure mRNA levels. Factor 7 mRNA levels were adjusted according to total RNA content as measured by RIBOGREEN®. Results are presented as percent inhibition of Factor 7, relative to untreated control cells.
Cells were plated at a density of 4,000 cells per well and transfected using lipofectin reagent with 3.125 nM, 6.25 nM, 12.5 nM, 25 nM, 50 nM, and 100 nM concentrations of antisense oligonucleotide, as specified in Table 14. After a treatment period of approximately 16 hours, RNA was isolated from the cells and Factor 7 mRNA levels were measured by quantitative real-time PCR. Human Factor 7 primer probe set RTS 2927 was used to measure mRNA levels. Factor 7 mRNA levels were adjusted according to total RNA content, as measured by RIBOGREEN®. Results are presented as percent inhibition of Factor 7, relative to untreated control cells.

First: 407900 (antisense e[5mC]*e[5mC]*e[5mC]*e[5mC]*eA*d[5mC]*dA*dA*dT*dT*d[5mC]*dG*dG*d[5mC]*d[5mC]*eT*eT*eG*eG*eG) [compound 407900]
Second: 407910 (antisense eA*eG*eT*e[5mC]*e[5mC]*dT*dT*dG*d[5mC]*dT*dG*d[5mC]*d[5mC]*dA*dT*e[5mC]*e[5mC]*eG*eA*eG) [compound 407910]
The “percent inhibition of Factor 7” value of the first is higher: 52% for the first, 31% for the second.

“407936 (antisense eG*eG*e[5mC]*eA*eT*dT*d[5mC]*dG*d[5mC]*d[5mC]*dA*d[5mC]*d[5mC]*dA*dT*eG*e[5mC]*eA*eT*eG) [compound 407936]” was tested, and the “percent inhibition of Factor 7” value was 45%.

Same assay, conditions: Table 3, 6.25 nM, approximately 16 hours

Compared with “407900 (antisense e[5mC]*e[5mC]*e[5mC]*e[5mC]*eA*d[5mC]*dA*dA*dT*dT*d[5mC]*dG*dG*d[5mC]*d[5mC]*eT*eT*eG*eG*eG) [compound 407900]”, “407910 (antisense eA*eG*eT*e[5mC]*e[5mC]*dT*dT*dG*d[5mC]*dT*dG*d[5mC]*d[5mC]*dA*dT*e[5mC]*e[5mC]*eG*eA*eG) [compound 407910]” is lower in “percent inhibition of Factor 7” value: 58% for the first, 44% for the second.

“407936 (antisense eG*eG*e[5mC]*eA*eT*dT*d[5mC]*dG*d[5mC]*d[5mC]*dA*d[5mC]*d[5mC]*dA*dT*eG*e[5mC]*eA*eT*eG) [compound 407936]” was tested, and the “percent inhibition of Factor 7” value was 77%.

Same assay, conditions: Table 3, 12.5 nM, approximately 16 hours

Going from “407900 (antisense e[5mC]*e[5mC]*e[5mC]*e[5mC]*eA*d[5mC]*dA*dA*dT*dT*d[5mC]*dG*dG*d[5mC]*d[5mC]*eT*eT*eG*eG*eG) [compound 407900]” to “407910 (antisense eA*eG*eT*e[5mC]*e[5mC]*dT*dT*dG*d[5mC]*dT*dG*d[5mC]*d[5mC]*dA*dT*e[5mC]*e[5mC]*eG*eA*eG) [compound 407910]”, the “percent inhibition of Factor 7” value falls from 80% to 69%.

“407936 (antisense eG*eG*e[5mC]*eA*eT*dT*d[5mC]*dG*d[5mC]*d[5mC]*dA*d[5mC]*d[5mC]*dA*dT*eG*e[5mC]*eA*eT*eG) [compound 407936]” was tested, and the “percent inhibition of Factor 7” value was 79%.

Same assay, conditions: Table 3, 25.0 nM, approximately 16 hours

Going from “407900 (antisense e[5mC]*e[5mC]*e[5mC]*e[5mC]*eA*d[5mC]*dA*dA*dT*dT*d[5mC]*dG*dG*d[5mC]*d[5mC]*eT*eT*eG*eG*eG) [compound 407900]” to “407910 (antisense eA*eG*eT*e[5mC]*e[5mC]*dT*dT*dG*d[5mC]*dT*dG*d[5mC]*d[5mC]*dA*dT*e[5mC]*e[5mC]*eG*eA*eG) [compound 407910]”, the “percent inhibition of Factor 7” value falls from 87% to 68%.

In the case of “407936 (antisense eG*eG*e[5mC]*eA*eT*dT*d[5mC]*dG*d[5mC]*d[5mC]*dA*d[5mC]*d[5mC]*dA*dT*eG*e[5mC]*eA*eT*eG) [compound 407936]”, the “percent inhibition of Factor 7” value is reported as 86%.

Same assay, conditions: Table 3, 50.0 nM, approximately 16 hours

Compared with “407900 (antisense e[5mC]*e[5mC]*e[5mC]*e[5mC]*eA*d[5mC]*dA*dA*dT*dT*d[5mC]*dG*dG*d[5mC]*d[5mC]*eT*eT*eG*eG*eG) [compound 407900]”, “407910 (antisense eA*eG*eT*e[5mC]*e[5mC]*dT*dT*dG*d[5mC]*dT*dG*d[5mC]*d[5mC]*dA*dT*e[5mC]*e[5mC]*eG*eA*eG) [compound 407910]” is lower in “percent inhibition of Factor 7” value: 94% for the first, 82% for the second.

In the case of “407936 (antisense eG*eG*e[5mC]*eA*eT*dT*d[5mC]*dG*d[5mC]*d[5mC]*dA*d[5mC]*d[5mC]*dA*dT*eG*e[5mC]*eA*eT*eG) [compound 407936]”, the “percent inhibition of Factor 7” value is reported as 91%.

Same assay, conditions: Table 3, 100.0 nM, approximately 16 hours

First: 407900 (antisense e[5mC]*e[5mC]*e[5mC]*e[5mC]*eA*d[5mC]*dA*dA*dT*dT*d[5mC]*dG*dG*d[5mC]*d[5mC]*eT*eT*eG*eG*eG) [compound 407900]
Second: 407910 (antisense eA*eG*eT*e[5mC]*e[5mC]*dT*dT*dG*d[5mC]*dT*dG*d[5mC]*d[5mC]*dA*dT*e[5mC]*e[5mC]*eG*eA*eG) [compound 407910]
The “percent inhibition of Factor 7” value of the first is higher: 91% for the first, 89% for the second.

In the case of “407936 (antisense eG*eG*e[5mC]*eA*eT*dT*d[5mC]*dG*d[5mC]*d[5mC]*dA*d[5mC]*d[5mC]*dA*dT*eG*e[5mC]*eA*eT*eG) [compound 407936]”, the “percent inhibition of Factor 7” value is reported as 90%.

Same assay, conditions: Table 7, 6.25 nM, approximately 16 hours

For “407900 (antisense e[5mC]*e[5mC]*e[5mC]*e[5mC]*eA*d[5mC]*dA*dA*dT*dT*d[5mC]*dG*dG*d[5mC]*d[5mC]*eT*eT*eG*eG*eG) [compound 407900]”, the “percent inhibition of Factor 7” value was 18%.

Same assay, conditions: Table 7, 12.5 nM, approximately 16 hours

For “407900 (antisense e[5mC]*e[5mC]*e[5mC]*e[5mC]*eA*d[5mC]*dA*dA*dT*dT*d[5mC]*dG*dG*d[5mC]*d[5mC]*eT*eT*eG*eG*eG) [compound 407900]”, the “percent inhibition of Factor 7” value was 36%.

Same assay, conditions: Table 7, 25.0 nM, approximately 16 hours

In the case of “407900 (antisense e[5mC]*e[5mC]*e[5mC]*e[5mC]*eA*d[5mC]*dA*dA*dT*dT*d[5mC]*dG*dG*d[5mC]*d[5mC]*eT*eT*eG*eG*eG) [compound 407900]”, the “percent inhibition of Factor 7” value is reported as 61%.

Same assay, conditions: Table 7, 50.0 nM, approximately 16 hours

In the case of “407900 (antisense e[5mC]*e[5mC]*e[5mC]*e[5mC]*eA*d[5mC]*dA*dA*dT*dT*d[5mC]*dG*dG*d[5mC]*d[5mC]*eT*eT*eG*eG*eG) [compound 407900]”, the “percent inhibition of Factor 7” value is reported as 82%.

Same assay, conditions: Table 7, 100.0 nM, approximately 16 hours

In the case of “407900 (antisense e[5mC]*e[5mC]*e[5mC]*e[5mC]*eA*d[5mC]*dA*dA*dT*dT*d[5mC]*dG*dG*d[5mC]*d[5mC]*eT*eT*eG*eG*eG) [compound 407900]”, the “percent inhibition of Factor 7” value is reported as 91%.

Reference: US9029337B2, “Modulation of factor 7 expression” (Isis Pharmaceuticals, Inc., priority 2007, dated 2015)
